# In patent publication USH1923H, “Herbicidal (oxaalkyl) phenyl-substituted heterocycles” (FMC Corporation, priority 1998, dated 2000):
# What was measured:
# soybean [1] = test: postemergence herbicidal activity on soybean; type: in vivo, Glycine max var. Winchester; details: Glycine max, post-emergence, 0.3 Kg/Ha, after 12-17 days, read-out: POSTEMERGENCE HERBICIDAL ACTIVITY (% CONTROL) SOY
# Experimental: (§1) The (oxaalkyl)phenyl-substituted heterocycles of this invention were tested for pre- and postemergence herbicidal activity using a variety of crops and weeds. The test plants included soybean (Glycine max var. Winchester),field corn (Zea mays var. Pioneer 3732), wheat (Triticum aestivum var. Lew), morningglory (Ipomea lacunosa or Ipomea hederacea), […] (Abutilon theophrasti), green foxtail (Setaria viridis), Johnsongrass (Sorghum halepense), blackgrass (Aloepecurus myosuroides), common chickweed (Stellaria media), and common cocklebur (Xanthium strumarium L.).
# (§2) For preemergence testing, two disposable fiber flats (8 cm×15 cm×25 cm) for each rate of application of each candidate herbicide were filled to an approximate depth of 6.5 cm with steam-sterilized sandy loam soil. The soil was leveled and impressed with a template to provide five evenly spaced furrows 13 cm long and 0.5 cm deep in each flat. Seeds of soybean, wheat, corn, green foxtail, and johnsongrass were planted in the furrows of the first flat, and seeds of velvetleaf, morningglory, common chickweed, cocklebur, and blackgrass were planted in the furrows of the second flat. The five-row template was employed to firmly press the seeds into place. A topping soil of equal portions of sand and sandy loam soil was placed uniformly on top of each flat to a depth of approximately 0.5 cm. Flats for postemergence testing were prepared in the same manner except that they were planted 9-14 days prior to the preemergence flats and were placed in a greenhouse and watered, thus allowing the seeds to germinate and the foliage to develop.
# (§3) In both pre- and postemergence tests, a stock solution of the candidate herbicide was prepared by dissolving 0.27 g of the compound in 20 mL of water/acetone (50/50) containing 0.5% v/v sorbitan monolaurate. For an application rate of 3000 g/ha of herbicide a 10 mL portion of the stock solution was diluted with water/acetone (50/50) to 45 mL.
# (§4) The preemergence flats were initially subjected to a light water spray. The four flats were placed two by two along a conveyor belt (i.e., the two preemergence followed by the two postemergence flats). The conveyor belt fed under a spray nozzle mounted about ten inches above the postemergent foliage. The preemergent flats were elevated on the belt so that the soil surface was at the same level below the spray nozzle as the foliage canopy of the postemergent plants. The spray of herbicidal solution was commenced and once stabilized, the flats were passed under the spray at a speed to receive a coverage equivalent of 1000 L/ha. At this coverage the application rates are those shown in the above table for the individual herbicidal solutions. The preemergence flats were watered immediately thereafter, placed in the greenhouse and watered regularly at the soil surface. The postemergence flats were immediately placed in the green-house and not watered until 24 hours after treatment with the test solution. Thereafter they were regularly watered at ground level. After 12-17 days the plants were examined and the phytotoxicity data were recorded.
# (§5) Phytotoxicity data were taken as percent control. Percent control was by a method similar to the 0 to 1 00 rating system disclosed in "Research Methods in Weed Science," 2nd ed., B. Truelove, Ed.; Southern Weed Science Society; Auburn University, Auburn, Ala., 1977.
# green foxtail [2] = test: preemergence herbicidal activity on green foxtail; type: in vivo; details: Setaria viridis, pre-emergence, 0.3 Kg/Ha, after 12-17 days, read-out: PREEMERGENCE HERBICIDAL ACTIVITY (% CONTROL) SETVI
# Experimental: as §1, §2, §3, §4, §5
# velvetleaf [3] = test: preemergence herbicidal activity on velvetleaf; type: in vivo; details: Abutilon theophrasti, pre-emergence, 0.3 Kg/Ha, after 12-17 days, read-out: PREEMERGENCE HERBICIDAL ACTIVITY (% CONTROL) ABUTH
# Experimental: as §1, §2, §3, §4, §5
# corn [4] = test: postemergence herbicidal activity on corn; type: in vivo, Zea mays var. Pioneer 3732; details: Zea mays, post-emergence, 0.3 Kg/Ha, after 12-17 days, read-out: POSTEMERGENCE HERBICIDAL ACTIVITY (% CONTROL) CRN
# Experimental: as §1, §2, §3, §4, §5
# morningglory [5] = test: postemergence herbicidal activity on morningglory; type: in vivo, Ipomea lacunosa or Ipomea hederacea; details: Ipomoea, post-emergence, 0.3 Kg/Ha, after 12-17 days, read-out: POSTEMERGENCE HERBICIDAL ACTIVITY (% CONTROL) IPOSS
# Experimental: as §1, §2, §3, §4, §5
# blackgrass [6] = test: postemergence herbicidal activity on blackgrass; type: in vivo, Aloepecurus myosuroides; details: Alopecurus myosuroides, post-emergence, 0.3 Kg/Ha, after 12-17 days, read-out: POSTEMERGENCE HERBICIDAL ACTIVITY (% CONTROL) ALOMY
# Experimental: as §1, §2, §3, §4, §5
# wheat [7] = test: postemergence herbicidal activity on wheat; type: in vivo, Triticum aestivum var. Lew; details: Triticum aestivum, post-emergence, 0.3 Kg/Ha, after 12-17 days, read-out: POSTEMERGENCE HERBICIDAL ACTIVITY (% CONTROL) WHT
# Experimental: as §1, §2, §3, §4, §5
# wheat [8] = test: preemergence herbicidal activity on wheat; type: in vivo, Triticum aestivum var. Lew; details: Triticum aestivum, pre-emergence, 0.3 Kg/Ha, after 12-17 days, read-out: PREEMERGENCE HERBICIDAL ACTIVITY (% CONTROL) WHT
# Experimental: as §1, §2, §3, §4, §5
# johnsongrass [9] = test: postemergence herbicidal activity on johnsongrass; type: in vivo; details: Sorghum halepense, post-emergence, 0.3 Kg/Ha, after 12-17 days, read-out: POSTEMERGENCE HERBICIDAL ACTIVITY (% CONTROL) SORHA
# Experimental: as §1, §2, §3, §4, §5
# green foxtail [10] = test: postemergence herbicidal activity on green foxtail; type: in vivo; details: Setaria viridis, post-emergence, 0.3 Kg/Ha, after 12-17 days, read-out: POSTEMERGENCE HERBICIDAL ACTIVITY (% CONTROL) SETVI
# Experimental: as §1, §2, §3, §4, §5
# blackgrass [11] = test: preemergence herbicidal activity on blackgrass; type: in vivo, Aloepecurus myosuroides; details: Alopecurus myosuroides, pre-emergence, 0.3 Kg/Ha, after 12-17 days, read-out: PREEMERGENCE HERBICIDAL ACTIVITY (% CONTROL) ALOMY
# Experimental: as §1, §2, §3, §4, §5
# chickweed [12] = test: postemergence herbicidal activity on chickweed; type: in vivo; details: Stellaria media, post-emergence, 0.3 Kg/Ha, after 12-17 days, read-out: POSTEMERGENCE HERBICIDAL ACTIVITY (% CONTROL) STEME
# Experimental: as §1, §2, §3, §4, §5
# chickweed [13] = test: preemergence herbicidal activity on chickweed; type: in vivo; details: Stellaria media, pre-emergence, 0.3 Kg/Ha, after 12-17 days, read-out: PREEMERGENCE HERBICIDAL ACTIVITY (% CONTROL) STEME
# Experimental: as §1, §2, §3, §4, §5
# johnsongrass [14] = test: preemergence herbicidal activity on johnsongrass; type: in vivo; details: Sorghum halepense, pre-emergence, 0.3 Kg/Ha, after 12-17 days, read-out: PREEMERGENCE HERBICIDAL ACTIVITY (% CONTROL) SORHA
# Experimental: as §1, §2, §3, §4, §5
# soybean [15] = test: preemergence herbicidal activity on soybean; type: in vivo, Glycine max var. Winchester; details: Glycine max, pre-emergence, 0.3 Kg/Ha, after 12-17 days, read-out: PREEMERGENCE HERBICIDAL ACTIVITY (% CONTROL) SOY
# Experimental: as §1, §2, §3, §4, §5
# velvetleaf [16] = test: postemergence herbicidal activity on velvetleaf; type: in vivo; details: Abutilon theophrasti, post-emergence, 0.3 Kg/Ha, after 12-17 days, read-out: POSTEMERGENCE HERBICIDAL ACTIVITY (% CONTROL) ABUTH
# Experimental: as §1, §2, §3, §4, §5
# cocklebur = test: postemergence herbicidal activity on cocklebur; type: in vivo, Xanthium strumarium L.; details: Xanthium strumarium, post-emergence, 0.3 Kg/Ha, after 12-17 days, read-out: POSTEMERGENCE HERBICIDAL ACTIVITY (% CONTROL) XANPE
# Experimental: as §1, §2, §3, §4, §5
# morningglory [17] = test: preemergence herbicidal activity on morningglory; type: in vivo, Ipomea lacunosa or Ipomea hederacea; details: Ipomoea, pre-emergence, 0.3 Kg/Ha, after 12-17 days, read-out: PREEMERGENCE HERBICIDAL ACTIVITY (% CONTROL) IPOSS
# Experimental: as §1, §2, §3, §4, §5
# corn [18] = test: preemergence herbicidal activity on corn; type: in vivo, Zea mays var. Pioneer 3732; details: Zea mays, pre-emergence, 0.3 Kg/Ha, after 12-17 days, read-out: PREEMERGENCE HERBICIDAL ACTIVITY (% CONTROL) CRN
# Experimental: as §1, §2, §3, §4, §5
SMILES,activity at 300 g/ha (soybean [1]) [%],activity at 300 g/ha (green foxtail [2]) [%],activity at 300 g/ha (velvetleaf [3]) [%],activity at 300 g/ha (corn [4]) [%],activity at 300 g/ha (morningglory [5]) [%],activity at 300 g/ha (blackgrass [6]) [%],activity at 300 g/ha (wheat [7]) [%],activity at 300 g/ha (wheat [8]) [%],activity at 300 g/ha (johnsongrass [9]) [%],activity at 300 g/ha (green foxtail [10]) [%],activity at 300 g/ha (blackgrass [11]) [%],activity at 300 g/ha (chickweed [12]) [%],activity at 300 g/ha (chickweed [13]) [%],activity at 300 g/ha (johnsongrass [14]) [%],activity at 300 g/ha (soybean [15]) [%],activity at 300 g/ha (velvetleaf [16]) [%],activity at 300 g/ha (cocklebur) [%],activity at 300 g/ha (morningglory [17]) [%],activity at 300 g/ha (corn [18]) [%]
Cc1nn(-c2cc(CC(Cl)COC(=O)NC3CCCCC3)c(Cl)cc2F)c(=O)n1C(F)F (stereo not drawn) [Compound 35],80,100,100,70,80,30,25,20,60,80,30,30,100,50,30,100,100,90,10
Cc1nn(-c2cc(CC(Cl)COC(=O)NC(C)C)c(Cl)cc2F)c(=O)n1C(F)F (stereo not drawn) [Compound 34],90,100,100,85,90,65,50,50,95,100,60,75,100,100,80,100,100,100,70
CCNC(=O)OCC(Cl)Cc1cc(-n2nc(C)n(C(F)F)c2=O)c(F)cc1Cl (stereo not drawn) [Compound 32],95,100,100,80,95,70,40,40,90,100,75,100,90,95,100,100,100,95,70
"CNC(=O)OCC(Cl)Cc1cc(-n2nc(C)n(C(F)F)c2=O)c(F)cc1Cl (stereo not drawn) [Compound 31, 2-CHLORO-1-[2-CHLORO-4-FLUORO-5-[4DIFLUOROMETHYL-4,5-DIHYDRO-3-METHYL-1,2,4-TRIAZOL-5(1H)-ON-1-YL]PHENYL]PROPAN-3-YL METHYLCARBAMATE]",95,100,100,85,100,75,50,70,100,100,70,100,100,100,100,100,100,100,90
Cc1nn(-c2cc(CC(Cl)COC(=O)NC(C)(C)C)c(Cl)cc2F)c(=O)n1C(F)F (stereo not drawn) [Compound 33],90,100,100,80,100,60,40,20,80,100,70,80,90,80,60,100,100,70,80
CCCCCCNC(=O)OCC(Cl)Cc1cc(-n2nc(C)n(C(F)F)c2=O)c(F)cc1Cl (stereo not drawn) [Compound 36],80,100,100,80,100,50,30,30,75,80,50,100,60,70,70,100,100,100,30
